Measurements published in the supplement of paper PMC4862054.

What was measured:
Conditions in all cases: incubation time: 72 h
HCC1937 [1] = test: normalised response (% of control), CellTox Green; higher = less cell death (100 = DMSO, 0 = benzethonium chloride kill control)
Procedure, shortened: (§1)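 Each value is the plate-normalised signal at one concentration of the series. Breast cancer cell lines (20 µl suspension) were incubated 72 h in 384-well plates with compound at 5 concentrations in 10-fold steps over a compound-specific 10,000-fold range. CellTox Green and then CellTiter-Glo were read, and each plate was scaled to 0.1 % DMSO (100) and a positive kill control (0).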

BT-549 [2] = test: as above
Procedure, shortened: as §1

BT-474 [3] = test: as above
Procedure, shortened: as §1

CAL-51 [4] = test: as above
Procedure, shortened: as §1

DU-4475 [5] = test: as above
Procedure, shortened: as §1

MCF-10A [6] = test: as above
Procedure, shortened: as §1

HDQ-P1 [7] = test: as above
Procedure, shortened: as §1

MDA-MB-453 [8] = test: as above
Procedure, shortened: as §1

CAL-148 [9] = test: as above
Procedure, shortened: as §1

CAL-85-1 [10] = test: as above
Procedure, shortened: as §1

MDA-MB-436 [11] = test: as above
Procedure, shortened: as §1

Hs578T [12] = test: as above
Procedure, shortened: as §1

HCC1599 [13] = test: as above
Procedure, shortened: as §1

MDA-MB-468 [14] = test: as above
Procedure, shortened: as §1

CAL-120 [15] = test: as above
Procedure, shortened: as §1

HCC1143 [16] = test: as above
Procedure, shortened: as §1

MDA-MB-231 [17] = test: as above
Procedure, shortened: as §1

HCC1937 [18] = test: normalised response (% of control), CellTiter-Glo; higher = more viable cells (100 = DMSO, 0 = benzethonium chloride kill control)
Method: (§2)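 DSRT, 72 h incubation, CellTox Green / CellTiter-Glo readout. Signal is normalised to DMSO and benzethonium chloride controls. Value is the normalised response at the highest dose.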

BT-549 [19] = test: as above
Method: as §2

BT-474 [20] = test: as above
Method: as §2

CAL-51 [21] = test: as above
Method: as §2

DU-4475 [22] = test: as above
Method: as §2

MCF-10A [23] = test: as above
Method: as §2

HDQ-P1 [24] = test: as above
Method: as §2

MDA-MB-453 [25] = test: as above
Method: as §2

CAL-148 [26] = test: as above
Method: as §2

CAL-85-1 [27] = test: as above
Method: as §2

SK-BR-3 = test: as above
Method: as §2

MDA-MB-436 [28] = test: as above
Method: as §2

Hs578T [29] = test: as above
Method: as §2

HCC1599 [30] = test: as above
Method: as §2

MDA-MB-468 [31] = test: as above
Method: as §2

CAL-120 [32] = test: as above
Method: as §2

HCC1143 [33] = test: as above
Method: as §2

MFM-223 [34] = test: as above
Method: as §2

MDA-MB-231 [35] = test: as above
Method: as §2

MFM-223 [36] = test: normalised response (% of control), CellTox Green; higher = less cell death (100 = DMSO, 0 = benzethonium chloride kill control)
Procedure, shortened: as §1

| SMILES | normalised response (HCC1937 [1]) [%] | normalised response (BT-549 [2]) [%] | normalised response (BT-474 [3]) [%] | normalised response (CAL-51 [4]) [%] | normalised response (DU-4475 [5]) [%] | normalised response (MCF-10A [6]) [%] | normalised response (HDQ-P1 [7]) [%] | normalised response (MDA-MB-453 [8]) [%] | normalised response (CAL-148 [9]) [%] | normalised response (CAL-85-1 [10]) [%] | normalised response (MDA-MB-436 [11]) [%] | normalised response (Hs578T [12]) [%] | normalised response (HCC1599 [13]) [%] | normalised response (MDA-MB-468 [14]) [%] | normalised response (CAL-120 [15]) [%] | normalised response (HCC1143 [16]) [%] | normalised response (MDA-MB-231 [17]) [%] | normalised response (HCC1937 [18]) [%] | normalised response (BT-549 [19]) [%] | normalised response (BT-474 [20]) [%] | normalised response (CAL-51 [21]) [%] | normalised response (DU-4475 [22]) [%] | normalised response (MCF-10A [23]) [%] | normalised response (HDQ-P1 [24]) [%] | normalised response (MDA-MB-453 [25]) [%] | normalised response (CAL-148 [26]) [%] | normalised response (CAL-85-1 [27]) [%] | normalised response (SK-BR-3) [%] | normalised response (MDA-MB-436 [28]) [%] | normalised response (Hs578T [29]) [%] | normalised response (HCC1599 [30]) [%] | normalised response (MDA-MB-468 [31]) [%] | normalised response (CAL-120 [32]) [%] | normalised response (HCC1143 [33]) [%] | normalised response (MFM-223 [34]) [%] | normalised response (MDA-MB-231 [35]) [%] | normalised response (MFM-223 [36]) [%] |
| --- | --- | --- | --- | --- | --- | --- | --- | --- | --- | --- | --- | --- | --- | --- | --- | --- | --- | --- | --- | --- | --- | --- | --- | --- | --- | --- | --- | --- | --- | --- | --- | --- | --- | --- | --- | --- | --- |
| Nc1nc(F)nc2c1ncn2[C@@H]1O[C@H](CO)[C@@H](O)[C@@H]1O [Fludarabine] (10000 nM) | 91.6 | 93.6 | 97.5 | 101 | 97.6 | 101 | 105 | 98.5 | 93 | 68.5 | 84.9 | 93.3 | 101 | 119 | 96 | 116 | 103 | 86.3 | 79.1 | 82.9 | 125 | 106 | 114 | 96.3 | 112 | 87.6 | 83.9 | 99 | 53.2 | 98.3 | 78.9 | 105 | 86.1 | 69.9 | 108 | 95.2 |  |
| CCN(CC)CCCC(C)Nc1c2ccc(Cl)cc2nc2ccc(OC)cc12 (centres undefined) [Mepacrine] (50000 nM) | 112 | 97.8 | 104 | 99.1 | 96.4 | 103 | 99.8 | 61.2 | 88 | 101 | 91.2 | 58.1 | 93.3 | 89.7 | 95.8 | 104 |  | 100 | 106 | 100 | 87.4 | 92.2 | 100 | 101 | 98.8 | 91 | 103 | 89.3 | 97 | 97.7 | 113 | 102 | 106 | 99.2 | 93.5 | 94.8 | 84.8 |
| Nc1nc2[nH]cc(CCc3ccc(C(=O)N[C@@H](CCC(=O)O)C(=O)O)cc3)c2c(=O)[nH]1 [Pemetrexed] (10000 nM) | 99 | 98.9 | 77.3 | 87 | 96.7 | 72 | 111 | 93 | 102 | 81.1 | 80.4 | 65.3 | 91.5 |  | 99.8 | 119 | 70.5 | 65.9 | 97.2 | 39 | 68.3 | 93.7 | 91.7 | 82.7 | 97.5 | 88.5 | 54.2 | 65.9 | 78.1 | 18.5 | 75.9 | 93.3 | 81.9 | 91 | 89.7 | 48 | 98.8 |
| CNC(=O)c1cc(Oc2ccc(NC(=O)Nc3cc(C(C)(C)C)nn3-c3ccc4ncccc4c3)c(F)c2)ccn1 [Rebastinib] (1000 nM) | 107 | 77.5 | 89.2 | 99.7 | 99.7 | 101 |  | 104 | 101 |  | 85.7 | 106 | 100 | 64 | 85.9 | 115 | 102 | 99.8 | 71.3 | 81.6 | 74.1 | 96.7 | 102 | 95.7 | 111 | 118 | 87.5 | 92.1 | 112 | 116 | 102 | 102 | 69.2 | 102 | 62.2 | 77.8 | 101 |
| CCCS(=O)(=O)Nc1ccc(F)c(C(=O)c2c[nH]c3ncc(-c4ccc(Cl)cc4)cc23)c1F [Vemurafenib] (10000 nM) | 78.4 | 89.5 | 95.4 | 65.3 | 77.1 |  | 98.9 | 101 | 75.7 | 109 | 92.7 | 71.5 | 95.8 | 148 | 97.3 | 100 | 87 | 84 | 71.8 | 82.6 | 78.4 | 2.81 | 95.8 | 70.7 | 89.3 | 94.7 | 85.1 | 71 | 66.8 | 70.7 | 86.4 | 57.2 | 91.1 | 86.1 | 80.1 | 86.3 | 97.7 |
